Experimental data: patent publication US10913740B2, “JAK kinase inhibitor compounds for treatment of respiratory disease” (THERAVANCE BIOPHARMA R&D IP, LLC, priority 2015, dated 2021)
Read-outs that look alike come from different tables or passages of the source. One block for each molecule: values may come before it.

Experiments:
[1] = Pharmacokinetics in plasma and lung in mouse; type: in vivo; conditions: ratio of lung AUC (μg hr/g) to plasma AUC (μg hr/mL), oral aspiration, 0.2 mg/mL, 50 uL
Experimental: Plasma and lung levels of test compounds and ratios thereof were determined in the following manner. BALB/c mice from Charles River Laboratories were used in the assay. Test compounds were individually formulated in 20% propylene glycol in pH 4 citrate buffer at a concentration of 0.2 mg/mL and 50 uL of the dosing solution was introduced into the trachea of a mouse by oral aspiration. At various time points (typically 0.167, 2, 6, 24 hr) post dosing, blood samples were removed via cardiac puncture and intact lungs were excised from the mice. Blood samples were centrifuged (Eppendorf centrifuge, 5804R) for 4 minutes at approximately 12,000 rpm at 4° C. to collect plasma. Lungs were padded dry, weighed, and homogenized at a dilution of 1:3 in sterile water. Plasma and lung levels of test compound were determined by LC-MS analysis against analytical standards constructed into a standard curve in the test matrix. A lung to plasma ratio was determined as the ratio of the lung AUC in μg hr/g to the plasma AUC in μg hr/mL, where AUC is conventionally defined as the area under the curve of test compound concentration vs. time.

[2] = biological target: JAK1 (Homo sapiens (Human), UniProt P23458); experiment: LanthaScreen JAK biochemical assay (JAK1); conditions: vs Examples 1, 7, 13, 6 respectively
JAK1, sequence (P23458 whole entry): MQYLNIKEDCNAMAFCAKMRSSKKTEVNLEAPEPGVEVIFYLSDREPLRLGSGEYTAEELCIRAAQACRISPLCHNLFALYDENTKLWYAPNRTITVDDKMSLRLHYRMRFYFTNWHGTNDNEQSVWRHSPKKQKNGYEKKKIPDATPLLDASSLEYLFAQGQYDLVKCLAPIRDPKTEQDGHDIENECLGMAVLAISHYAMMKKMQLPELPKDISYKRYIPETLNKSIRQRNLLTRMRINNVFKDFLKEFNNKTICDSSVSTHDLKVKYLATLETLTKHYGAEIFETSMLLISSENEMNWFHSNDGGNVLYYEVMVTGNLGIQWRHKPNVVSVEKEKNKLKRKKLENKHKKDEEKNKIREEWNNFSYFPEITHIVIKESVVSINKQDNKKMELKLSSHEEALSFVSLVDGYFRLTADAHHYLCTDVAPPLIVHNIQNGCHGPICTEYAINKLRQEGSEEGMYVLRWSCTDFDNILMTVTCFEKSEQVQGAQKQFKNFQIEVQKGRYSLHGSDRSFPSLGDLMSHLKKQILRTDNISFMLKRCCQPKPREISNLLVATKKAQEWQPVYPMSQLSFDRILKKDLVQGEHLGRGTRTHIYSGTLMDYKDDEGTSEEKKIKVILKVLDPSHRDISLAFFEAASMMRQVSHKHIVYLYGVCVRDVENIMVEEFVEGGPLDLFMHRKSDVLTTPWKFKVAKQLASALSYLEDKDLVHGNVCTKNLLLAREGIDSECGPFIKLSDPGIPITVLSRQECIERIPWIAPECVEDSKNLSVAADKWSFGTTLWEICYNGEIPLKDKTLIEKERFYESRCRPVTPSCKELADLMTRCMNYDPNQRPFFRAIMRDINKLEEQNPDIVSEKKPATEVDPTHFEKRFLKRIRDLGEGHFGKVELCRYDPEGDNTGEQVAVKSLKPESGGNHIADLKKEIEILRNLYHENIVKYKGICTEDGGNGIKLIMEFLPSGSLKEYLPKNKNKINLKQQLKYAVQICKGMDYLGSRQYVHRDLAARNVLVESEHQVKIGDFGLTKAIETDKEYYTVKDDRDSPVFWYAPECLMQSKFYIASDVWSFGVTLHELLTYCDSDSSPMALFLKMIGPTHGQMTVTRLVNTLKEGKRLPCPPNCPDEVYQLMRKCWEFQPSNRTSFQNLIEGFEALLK

[3] = test system: interleukin-13 induced STAT6 phosphorylation in BEAS-2B human lung epithelial cells; experiment: AlphaScreen JAKI cellular potency assay (BEAS-2B); type: cell-based; conditions: vs Examples 1, 7, 13, 6 respectively
[4] = mouse, in vivo
Experimental: (§1) Adult balb/c mice from Harlan were used in the assay. On the day of study, animals were lightly anesthetized with isoflurane and administered either vehicle or test compound (0.5 mg/mL, 50 μL total volume over several breaths) via oral aspiration. Animals were placed in lateral recumbency post dose and monitored for full recovery from anesthesia before being returned to their home cage. Four hours later, animals were once again briefly anesthetized and challenged with either vehicle or IL-13 (0.03 μg total dose delivered, 50 μL total volume) via oral aspiration before being monitored for recovery from anesthesia and returned to their home cage. One hour after vehicle or IL-13 administration, lungs were collected for both pSTAT6 detection using an anti-pSTAT6 ELISA (rabbit mAb capture/coating antibody; mouse mAb detection/report antibody: anti-pSTAT6-pY641; secondary antibody: anti-mouse IgG-HRP) and analyzed for total drug concentration as described above in Assay 4.
Selected compounds of the invention were characterized in both the pharmacokinetic assay (Assay 4) and pharmacodynamic assay (Assay 5). A good correlation was observed between test compound concentration in lung determined in the pharmacokinetic assay and in the pharmacodynamic assay at a similar time points post dosing. Observation of significant compound concentration in the mouse lung in the pharmacodynamic assay confirmed that the observed inhibition of IL-13 induced pSTAT6 induction was a result of the activity of the test compound.

[5] = test system: IL-13 induced pSTAT6 in lung tissue; experiment: Murine model of IL-13 induced pSTAT6 induction in lung tissue; type: in vivo; conditions: mouse lung, Assay 5 conditions
Experimental: Il-13 is an important cytokine underlying the pathophysiology of asthma (Kudlacz et al. Eur. J. Pharmacol, 2008, 582, 154-161). IL-13 binds to cell surface receptors activating members of the Janus family of kinases (JAK) which then phosphorylate STAT6 and subsequently activates further transcription pathways. In the described model, a dose of IL-13 was delivered locally into the lungs of mice to induce the phosphorylation of STAT6 (pSTAT6) which is then measured as the endpoint.
as §1, with “On the day of study, animals were lightly anesthetized with isoflurane and administered either vehicle or test compound (0.5 mg/mL, 50 μL total volume over several breaths) via oral aspiration.” left out, “4. […]” for “4.”

[6] = Dynamic moisture sorption assessment; type: physicochemical; conditions: humidity range of 5% to 90% relative humidity, room temperature (25° C.)
Experimental: Dynamic moisture sorption (DMS) measurement was performed using a VTI atmospheric microbalance, SGA-100 system (VTI Corp., Hialeah, Fla. 33016). A weighed sample was used and the humidity was lowest possible value (close to 0% RH) at the start of the analysis. The DMS analysis consisted of an initial drying step (˜0% RH) for 120 minutes, followed by two cycles of sorption and desorption with a scan rate of 5% RH/step over the humidity range of 5% RH to 90% RH. The DMS run was performed isothermally at 25° C.

Structure (SMILES): CCc1cc(O)c(F)cc1-c1ccc2c(-c3nc4c([nH]3)CCN(C3CN(C5CCS(=O)(=O)C5)C3)C4)n[nH]c2c1 (stereo not drawn) [Example 1-15]
pSTAT6 inhibition in the pharmacodynamic assay [5]: noted as exceptions

Structure (SMILES): CCc1cc(O)c(F)cc1-c1ccc2c(-c3nc4c([nH]3)CCN(CCNC3(C#N)CC3)C4)n[nH]c2c1 [Example 3-1]
pSTAT6 inhibition in the pharmacodynamic assay [5]: noted as exceptions

Structure (SMILES): CCc1cc(O)c(F)cc1-c1ccc2c(-c3nc4c([nH]3)CCN(CCC(C)C)C4)n[nH]c2c1 [Example C-2]
fold less potent than the corresponding compound of the invention in the enzyme assay [2]: 3 fold
fold less potent than the corresponding compound of the invention in the BEAS-2B cellular assay [3]: 6 fold
factor by which lung concentration was smaller than for the corresponding compound of the invention [4]: 52

Structure (SMILES): CCc1cc(O)c(F)cc1-c1ccc2c(-c3nc4c([nH]3)CCN(C[C@@H]3CCCN3C)C4)n[nH]c2c1 [Example 11, (S)-5-ethyl-2-fluoro-4-(3-(5-((1-methylpyrrolidin-2-yl)methyl)-4,5,6,7-tetrahydro-1H-imidazo[4,5-c]pyridin-2-yl)-1H-indazol-6-yl)phenol]
Lung to Plasma ratio Assay 4 [1]: A (A denotes a ratio >100)

Structure (SMILES): CCc1cc(O)c(F)cc1-c1ccc2c(-c3nc4c([nH]3)CCN(C[C@@H]3COCCN3)C4)n[nH]c2c1 [Example 14, (R)-5-Ethyl-2-fluoro-4-(3-(5-(morpholin-3-ylmethyl)-4,5,6,7-tetrahydro-1H-imidazo[4,5-c]pyridin-2-yl)-1H-indazol-6-yl)phenol]
Lung to Plasma ratio Assay 4 [1]: A (A denotes a ratio >100)

Structure (SMILES): CCc1cc(O)c(F)cc1-c1ccc2c(-c3nc4c([nH]3)CCN(CCNC3CC(OC)C3)C4)n[nH]c2c1 (stereo not drawn) [Example 8, 5-Ethyl-2-fluoro-4-(3-(5-(2-((3-methoxycyclobutyl)amino)ethyl)-4,5,6,7-tetrahydro-1H-imidazo[4,5-c]pyridin-2-yl)-1H-indazol-6-yl)phenol]
Lung to Plasma ratio Assay 4 [1]: A (A denotes a ratio >100)

Structure (SMILES): CCc1cc(O)c(F)cc1-c1ccc2c(-c3nc4c([nH]3)CCN(CCN3CCC[C@@H]3C)C4)n[nH]c2c1 [Example 15, (S)-5-ethyl-2-fluoro-4-(3-(5-(2-(2-methylpyrrolidin-1-yl)ethyl)-4,5,6,7-tetrahydro-1H-imidazo[4,5-c]pyridin-2-yl)-1H-indazol-6-yl)phenol]
Lung to Plasma ratio Assay 4 [1]: A (A denotes a ratio >100)

Structure (SMILES): CCc1cc(O)c(F)cc1-c1ccc2c(-c3nc4c([nH]3)CCN(C3CCN(C)CC3)C4)n[nH]c2c1 [crystalline hydrate, 5-ethyl-2-fluoro-4-(3-(5-(1-methylpiperidin-4-yl)-4,5,6,7-tetrahydro-1H-imidazo[4,5-c]pyridin-2-yl)-1H-indazol-6-yl)phenol]
weight gain (dynamic moisture sorption) [6]: less than 0.12%

Structure (SMILES): CCc1cc(O)c(F)cc1-c1ccc2c(-c3nc4c([nH]3)CCN(C[C@H]3COCCN3)C4)n[nH]c2c1 [Example 13, (S)-5-Ethyl-2-fluoro-4-(3-(5-(morpholin-3-ylmethyl)-4,5,6,7-tetrahydro-1H-imidazo[4,5-c]pyridin-2-yl)-1H-indazol-6-yl)phenol]
Lung to Plasma ratio Assay 4 [1]: A (A denotes a ratio >100)

Continued, in another order:

Lung to Plasma ratio Assay 4 [1]: A (A denotes a ratio >100)
Structure (SMILES): CCc1cc(O)c(F)cc1-c1ccc2c(-c3nc4c([nH]3)CCN(CC3CNC3)C4)n[nH]c2c1 [Example 14-7]

Lung to Plasma ratio Assay 4 [1]: A (A denotes a ratio >100)
Structure (SMILES): CCc1cc(O)c(F)cc1-c1ccc2c(-c3nc4c([nH]3)CCN(CCN(C)CC(C)C)C4)n[nH]c2c1 [Example 3-33]

fold less potent than the corresponding compound of the invention in the enzyme assay [2]: 2.5 fold
factor by which lung concentration was smaller than for the corresponding compound of the invention [4]: 23
Structure (SMILES): CCc1cc(O)c(F)cc1-c1ccc2c(-c3nc4c([nH]3)CCN(C3CCC(C)CC3)C4)n[nH]c2c1 (stereo not drawn) [Example C-4]
fold less potent than the corresponding compound of the invention in the BEAS-2B cellular assay [3]: 6 fold

fold less potent than the corresponding compound of the invention in the enzyme assay [2]: 2 fold
factor by which lung concentration was smaller than for the corresponding compound of the invention ([4]; balb/c, 5 h): 36
Structure (SMILES): CCc1cc(O)c(F)cc1-c1ccc2c(-c3nc4c([nH]3)CCN(C3CC(C)C3)C4)n[nH]c2c1 (stereo not drawn) [Example C-1, 5-Ethyl-2-fluoro-4-(3-(5-(3-methylcyclobutyl)-4,5,6,7-tetrahydro-1H-imidazo[4,5-c]pyridin-2-yl)-1H-indazol-6-yl)phenol]

fold less potent than the corresponding compound of the invention in the enzyme assay [2]: 6 fold
factor by which lung concentration was smaller than for the corresponding compound of the invention [4]: 13
Structure (SMILES): CCc1cc(O)c(F)cc1-c1ccc2c(-c3nc4c([nH]3)CCN(CC3CCCOC3)C4)n[nH]c2c1 (stereo not drawn) [Example C-3]
fold less potent than the corresponding compound of the invention in the BEAS-2B cellular assay [3]: 3 fold
